From patent publication US12692273B2, “p53 modulators and uses thereof” (The Regents of the University of California, priority 2019, dated 2026)
Values joined by “and” are separate entries in the source; they are usually repeats but may differ in a detail not shown here. Equal entries are not always repeated. “Also recorded” adds a separate entry of the source.

What was measured:
p53 Y220C [1] = molecular target: T1, p53 Y220C (Homo sapiens, UniProt P04637, C124S/C182S/C229S/C275S/C277S/M133L/N239Y/N268D/Y220C); assay: Thermal stability assay (differential scanning fluorimetry) of p53 Y220C covalent adducts; type: binding; settings: for Tm: p53 Y220C-compound adduct, p53 Y220C alone 33.0, p53 WT 41.5; for Δ Tm (thermal shift, stabilization of Y220C): relative to p53 Y220C alone
T1 construct: Human p53 WT, R273C, and Y220C (residues 94-312,; 6xHIS (TEV-cleavable) (cleaved yes); made in house; host or cells: E. coli BL21(DE3)
Experimental: We synthesized a series of compounds, covalently labelled recombinant p53 (Y220C) with the compound, and performed differential scanning fluorimetry (DSF) assay to determine Tm relative to Y220C alone. We tested our lead compounds with the largest increase in Tm in homozygous p53 (Y220C) cell lines BxPC-3 and HCC1419 to determined how the covalent molecules alter p53 target gene expression. p53 WT MCF10A and p53 null Calu-1 cells were used as controls. The cell panel was treated with concentrations of compound ranging 100 nM-10 μM for 4 hr, 24 hr, and 48 hr. DMSO was used as a negative control, KG2 as a positive control, and Nutlin-3a as a positive control for p53 WT (FIG. 3D). We determined the differences in p53 target gene activation by performing qPCR on CDKN1A, MDM2, PUMA, BAX, NOXA, and used GAPDH as a negative control. We also performed a western blot on p53, p21, MDM2, and actin as a control to monitor the expected increase in protein levels of p21 and MDM2 protein. […] We immunoprecipitated p53 Y220C from the compound treated cell panel with Pab240 or IgG control, and western blot for p53 to determine the relative rescue of the native fold compared to DMSO treated cells.
(§1) Recombinant protein expression. Human p53 WT, R273C, and Y220C (residues 94-312, (C124S, M133L, C182S, C229S, N239Y, N268D, C275S, C277S) were expressed as 6×HIS fusion proteins in E. coli BL21(DE3). Lysates were first purified by Ni Sepharose High Performance (GE Healthcare) affinity chromatography. Proteins were then eluted from the resin and subject to Heparin (GE Healthcare) affinity chromatography. The elution fraction was then subjected to TEV protease cleavage overnight in 50 mM HEPES, 200 mM NaCl, and 1 mM DTT (pH 7.0). The protein was then passed over Heparin affinity resin again to remove free 6×HIS and TEV protease, concentrated, and stored in a buffer containing 50 mM HEPES, 200 mM NaCl, and 20% glycerol (pH 7.0).
Thermal Stability Assays. The thermal denaturation of p53 was monitored using fluorescence-based differential scanning fluorimetry assay. Purified p53 was incubated with excess covalent ligand overnight at 4° C. and purified by gel-filtration into 50 mM HEPES, 100 mM NaCl, and 15% glycerol (pH 7.0). 5 μM protein was prepared in assay buffer 50 mM HEPES and 100 mM NaCl (pH 7.0) with 2×SYPRO Orange (ThermoFisher). The plate was heated from 15° C. to 65° C. at a rate of 0.5° C./min. The fluorescence intensity was monitored at Ex/Em: 492/610 nm.

p53 Y220C [2] = molecular target: T1, p53 Y220C; assay: LC-MS analysis of p53 Y220C covalent labeling; type: binding; settings: for label and reactivate p53 Y220C: recombinant protein and patient derived cell-lines; for covalent labeling of p53 (Y220C): recombinant protein, Cys-220
Experimental: as §1
LC-MS analysis of p53 Y220C covalent labeling. Recombinant p53 Y220C (1 μM) in buffer containing 50 mM HEPES and 150 mM NaCl (pH 7.0) was treated with covalent compounds. The extent of covalent labeling was assessed by LC-MS (Waters Xevo G2-XS QTof, ACQUITY UPLC Protein BEH C4 Column, 300 Å, 1.7 μm, 2.1 mm×50 mm). Deconvolution of multiply charged ions was performed using Waters MassLynx software (version 4.1).

BxPC-3 (Y220C) cells = assay: Western blot of p21 and p53 in BxPC-3 (Y220C) cells; type: cell-based, human
Source text: (§2) This is exciting preliminary evidence of successful re-animation of p53 (Y220C) with our lead compound KG2.
We have successfully synthesized several PEG linked versions of JQ1-KG1 bivalent molecules. We also treated BxPC-3 cells with free KG1 and JQ1 compounds as additional controls. We have performed western blots on p53, p21 and actin as a control (FIG. 4C).
(§3) Western blots and antibodies. Whole-cell extracts from MCF10A (Gift from Prof. Sourav Bandyopadhyay, UCSF), BxPC-3 (ATCC, CRL-1687), Calu-1 (ATCC, HTB-54) were prepared by lysing cells with lysis buffer containing 50 mM HEPES, 150 mM NaCl, 1 mM DTT, 10% glycerol, and 1% NP-40 (pH 7.0) in the presence of 1×cOmplete EDTA-free protease inhibitor cocktail (Roche). Whole-cell extracts were combined with 2×SDS-loading buffer for western blot analysis.
(§4) Western blots were performed with 10 μg protein and were resolved by SDS-PAGE on 4-12% BT gels (Invitrogen) at 150 V for 1 hr in MES buffer and transferred to nitrocellulose membranes, which were then incubated with primary antibodies at 4° C. overnight, followed by incubation with LI-COR IRDye anti-mouse and anti-rabbit secondary antibodies at room temperature for 1 hr. Bands were imaged on a LI-COR Odyssey scanner.
(§5) Antibodies for western blot detection were as follows: p53 (DO-1, SCBT), actin (8H10D10, CST), Rb phosS807/811 (85165, CST), and p21 (SX118, SCBT).

Calu-1 (null) cells = assay: Western blot of p21 in Calu-1 (p53 null) cells; type: cell-based, human; settings: Calu-1, p53 null setting
Experimental: as §2, §3, §4, §5

C=CC(=O)n1cc(C=O)c2ccccc21 [KG37] was tested, and the Tm (p53 Y220C [1]; DSF) was 34.5 °C and the “Δ Tm (thermal shift, stabilization of Y220C)” value (p53 Y220C [1]) was 1.5 °C.
In the case of C=C(CC)C(N)=O [2-Ethylacrylamide], the “stabilization of Y220C (in words)” value (p53 Y220C [1]; DSF, in the assay tested) is reported as “did not stabilize”.
With C=CC(=O)n1c2ccccc2c2cc(C=O)ccc21 [KG1] the Tm (p53 Y220C [1]; DSF) was 35 °C and 34.5 °C, the “Δ Tm (thermal shift, stabilization of Y220C)” value (p53 Y220C [1]) was 1.5 °C and the “label and reactivate p53 Y220C” value (p53 Y220C [2]) was “label and reactivate”. The “covalent labeling of p53 (Y220C)” value (p53 Y220C [2]) was “reacts with p53 (Y220C); also recorded: covalently labels” and the “p21 induction (Western blot)” value (BxPC-3 (Y220C) cells; BxPC-3 (p53 Y220C) cells) was “little or no effects”.
In the case of Cc1sc2c(c1C)C(c1ccc(Cl)cc1)=N[C@@H](CC(=O)OC(C)(C)C)c1nnc(C)n1-2 [JQ1, (S)-tert-butyl 2-(4-(4-chlorophenyl)-2,3,9-trimethyl-6H-thieno[3,2-f][1,2,4]triazolo[4,3-a][1,4]diazepin-6-yl)acetate, reference compound], the “p21 induction (Western blot)” value (BxPC-3 (Y220C) cells; BxPC-3 (p53 Y220C) cells) is reported as “modest activation of p21”.
C=CC(=O)n1c2ccccc2c2cc(C(=O)NCCOCCOCCOCCOCCNC(=O)C[C@@H]3N=C(c4ccc(Cl)cc4)c4c(sc(C)c4C)-n4c(C)nnc43)ccc21 [JQ1PEG4KG1] was tested, and the “p21 induction (Western blot)” value (BxPC-3 (Y220C) cells; BxPC-3 (p53 Y220C) cells) was “strongly induce p21”, the “target p53 (Y220C) engagement (higher MW shift of p53 band)” value (BxPC-3 (Y220C) cells; BxPC-3 cells, Western blot) was “evidence of target p53 (Y220C) engagement” and the “cell death (lower actin staining)” value (BxPC-3 (Y220C) cells; BxPC-3 cells, higher concentrations, 24 hours) was “extensive cell death”.
C#CCNC(=O)c1cn(C(=O)C=C)c2ccccc12 [KG2] was tested, and the “p21 induction (Western blot)” value (Calu-1 (null) cells) was “does not show induction of p21”, the “label and reactivate p53 Y220C” value (p53 Y220C [2]) was “label and reactivate” and the “covalent labeling of p53 (Y220C)” value (p53 Y220C [2]) was “labels p53 (Y220C)”. For the same compound, the “active concentration for p21 activation” value (BxPC-3 (Y220C) cells; BxPC-3 (p53 Y220C) cells) was “active at μM concentrations” and the “p21 induction (Western blot)” value (BxPC-3 (Y220C) cells; BxPC-3 (p53 Y220C) cells) was “activation of p21 expression in Y220C cells to the same level as nutlin in WT p53 cells”.
